Test results: the Kinase Knowledgebase extract (Sharma et al. 2016)

Target: MAPK14 (UniProt Q16539)
Test: Inhibition of MAPK14 Kinase Activity

Chain of MAPK14 (Q16539 whole entry, looked up): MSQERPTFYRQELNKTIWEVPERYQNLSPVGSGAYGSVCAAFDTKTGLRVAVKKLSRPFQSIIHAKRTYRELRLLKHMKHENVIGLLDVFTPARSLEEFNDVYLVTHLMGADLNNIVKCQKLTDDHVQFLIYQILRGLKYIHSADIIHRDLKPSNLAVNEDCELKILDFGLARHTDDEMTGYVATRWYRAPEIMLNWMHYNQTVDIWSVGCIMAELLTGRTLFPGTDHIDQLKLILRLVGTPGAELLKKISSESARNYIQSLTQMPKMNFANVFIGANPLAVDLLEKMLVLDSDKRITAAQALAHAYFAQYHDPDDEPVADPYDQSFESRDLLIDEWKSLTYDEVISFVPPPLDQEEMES

| SMILES | IC50 |
| --- | --- |
| CC(C)S(=O)(=O)n1c(N)nc2ccc(-c3nc(C4CCCCC4)[nH]c3-c3ccc(F)cc3)cc21 | ≤ 5 µM |
| CC(C)S(=O)(=O)n1c(N)nc2ccc(-c3c(-c4ccccc4)ncn3CC3CC3)cc21 | ≤ 5 µM |
| CC(C)S(=O)(=O)n1c(N)nc2ccc(-c3c(-c4cccc(F)c4)ncn3[C@H]3CC[C@H](O)CC3)cc21 | ≤ 5 µM |
| CC(C)S(=O)(=O)n1c(N)nc2ccc(-c3nc(-c4ccccc4N4CCOCC4)[nH]c3-c3ccccc3)cc21 | ≤ 5 µM |
| CC(C)S(=O)(=O)n1c(N)nc2ccc(-c3nc[nH]c3-c3cccc(C(F)(F)F)c3)cc21 | ≤ 5 µM |
| CC(C)S(=O)(=O)n1c(N)nc2ccc(-c3nc(C4CCN(Cc5ccccn5)CC4)[nH]c3-c3ccccc3)cc21 | ≤ 5 µM |
| COC(=O)CCn1cnc(-c2ccccc2)c1-c1ccc2nc(N)n(S(=O)(=O)C(C)C)c2c1 | ≤ 5 µM |
| CN(C)S(=O)(=O)n1c(N)nc2ccc(-c3nc(-c4c(F)cccc4F)[nH]c3-c3ccccc3)cc21 | ≤ 5 µM |
| CC(C)S(=O)(=O)n1c(N)nc2ccc(-c3c(-c4ccccc4)ncn3C)cc21 | ≤ 5 µM |
| CC(C)CN1CCC(c2nc(-c3ccc4nc(N)n(S(=O)(=O)C(C)C)c4c3)c(-c3ccc(F)cc3)[nH]2)CC1 | ≤ 5 µM |
| CC(C)S(=O)(=O)n1c(N)nc2ccc(-c3c(-c4ccccc4)ncn3Cc3ccc(F)cc3F)cc21 | ≤ 5 µM |
| CC(C)S(=O)(=O)n1c(N)nc2ccc(-c3nc[nH]c3-c3ccc(F)cc3)cc21 | ≤ 5 µM |
| CC1=CC2=NC(c3ccccc3)C(c3ccc4nc(N)n(S(=O)(=O)C(C)C)c4c3)N2C=C1 (centres undefined) | ≤ 5 µM |
| CC(C)S(=O)(=O)n1c(N)nc2ccc(-c3c(-c4ccccc4)ncn3C3CCNCC3)cc21 | ≤ 5 µM |
| CC(C)S(=O)(=O)n1c(N)nc2ccc(-c3nc(-c4c(F)cccc4F)[nH]c3-c3ccc(F)cc3)cc21 | ≤ 5 µM |
| CC(C)S(=O)(=O)n1c(N)nc2ccc(-c3cn[nH]c3-c3ccccc3)cc21 | ≤ 5 µM |
| CC(C)S(=O)(=O)n1c(N)nc2ccc(-c3c(-c4ccccc4)ncn3C3CCC(=O)CC3)cc21 | ≤ 5 µM |
| CC(C)S(=O)(=O)n1c(N)nc2ccc(-c3nc(-c4ccccc4OC(F)(F)F)[nH]c3-c3ccccc3)cc21 | ≤ 5 µM |
| Cc1ccc(-c2[nH]c(-c3ccc(F)cc3)nc2-c2ccc3nc(N)n(S(=O)(=O)C(C)C)c3c2)cc1 | ≤ 5 µM |
| CCc1nc(-c2ccccc2F)c(-c2ccc3nc(N)n(S(=O)(=O)C(C)C)c3c2)n1C1CC1 | ≤ 5 µM |
| CC(C)S(=O)(=O)n1c(N)nc2ccc(-c3nc(-c4ccc(N)s4)[nH]c3-c3ccccc3)cc21 | ≤ 5 µM |

| SMILES | IC50 |
| --- | --- |
| COc1ccc(Cn2cnc(-c3ccccc3)c2-c2ccc3nc(N)n(S(=O)(=O)C(C)C)c3c2)cc1 | ≤ 5 µM |
| CC(C)S(=O)(=O)n1c(N)nc2ccc(-c3nc(C4CCNCC4)[nH]c3-c3ccccc3)cc21 | ≤ 5 µM |
| CC(C)S(=O)(=O)n1c(N)nc2ccc(-c3c(-c4ccccc4)ncn3[C@H]3CC[C@H](O)CC3)cc21 | ≤ 5 µM |
| CC(C)S(=O)(=O)n1c(N)nc2ccc(-c3c(-c4ccccc4)ncn3C3CCCC3)cc21 | ≤ 5 µM |
| CC(C)S(=O)(=O)n1c(N)nc2ccc(-c3c(-c4ccccc4F)nc(C#C[Si](C)(C)C)n3C3CC3)cc21 | ≤ 5 µM |
| CC(C)S(=O)(=O)n1c(N)nc2ccc(-c3c(-c4ccc(F)cc4)ncn3C3CCCCC3)cc21 | ≤ 5 µM |
| Nc1nc2ccc(-c3nc(-c4c(F)cccc4F)[nH]c3-c3ccccc3)cc2[nH]1 | ≤ 5 µM |
| CC(C)S(=O)(=O)n1c(N)nc2ccc(-c3c(-c4ccc(F)cc4)nc4n3CCC4)cc21 | ≤ 5 µM |
| CC(C)S(=O)(=O)n1c(N)nc2ccc(-c3nc[nH]c3-c3cccc(F)c3F)cc21 | ≤ 5 µM |
| CC(C)S(=O)(=O)n1c(Cc2ccccc2N)nc2ccc(-c3[nH]cnc3-c3ccccc3)cc21 | ≤ 5 µM |
| CC(C)S(=O)(=O)n1c(N)nc2ccc(-c3c(-c4ccccc4)ncn3[C@@H]3CCCC[C@H]3CO)cc21 | ≤ 5 µM |
| CC(C)S(=O)(=O)n1c(N)nc2ccc(C3C(c4ccccc4)N=C4Sc5ccccc5N43)cc21 (centres undefined) | ≤ 5 µM |
| CC(C)S(=O)(=O)n1c(N)nc2ccc(-c3nc(-c4cccc(Cl)c4)[nH]c3-c3ccccc3)cc21 | ≤ 5 µM |
| CC(C)S(=O)(=O)n1c(N)nc2ccc(-c3nc(-c4cccs4)[nH]c3-c3ccc(F)cc3)cc21 | ≤ 5 µM |
| Cc1nc(-c2ccccc2)c(-c2ccc3nc(N)n(S(=O)(=O)C(C)C)c3c2)s1 | ≤ 5 µM |
| Nc1nc2ccc(-c3nc[nH]c3-c3ccccc3)cc2s1 | ≤ 5 µM |
| CC(C)S(=O)(=O)n1c(N)nc2ccc(-c3c(-c4ccccc4)ncn3Cc3ccccn3)cc21 | ≤ 5 µM |
| CC(C)S(=O)(=O)n1c(N)nc2ccc(-c3c(-c4ccccc4)ncn3C3CCN(Cc4ccccc4)CC3)cc21 | ≤ 5 µM |
| CC(C)S(=O)(=O)n1c(N)nc2ccc(-c3nc(CN(C)CCN(C)C)[nH]c3-c3ccccc3)cc21 | ≤ 5 µM |
| CC(C)S(=O)(=O)n1c(N)nc2ccc(-c3nc(-c4ccc(OCCN5CCOCC5)c(F)c4)[nH]c3-c3ccccc3)cc21 | ≤ 5 µM |
| CC(C)S(=O)(=O)n1c(N)nc2ccc(-c3c(-c4ccc(F)cc4)ncn3[C@@H](C)CO)cc21 | ≤ 5 µM |

| SMILES | IC50 |
| --- | --- |
| CC(C)S(=O)(=O)n1c(N)nc2ccc(-c3nn[nH]c3-c3ccccc3)cc21 | ≤ 5 µM |
| CC(C)S(=O)(=O)n1c(N)nc2ccc(-c3nc(-c4c(F)cccc4F)n(C)c3-c3ccccc3)cc21 | ≤ 5 µM |
| CC(C)S(=O)(=O)n1c(N)nc2ccc(-c3nc(-c4cc(F)ccc4F)[nH]c3-c3ccccc3)cc21 | ≤ 5 µM |
| Cc1cccn2c(-c3ccc4nc(N)n(S(=O)(=O)C(C)C)c4c3)c(-c3ccccc3)nc12 | ≤ 5 µM |
| CC(C)S(=O)(=O)n1c(N)nc2ccc(-c3c(-c4ccc(F)cc4)ncn3CCN3CCOCC3)cc21 | ≤ 5 µM |
| CC(C)S(=O)(=O)n1c(N)nc2ccc(-c3c(-c4ccccc4)ncn3[C@H](CO)CC3CCCCC3)cc21 | ≤ 5 µM |
| CCc1ccc(-c2nc(-c3ccc4nc(N)n(S(=O)(=O)C(C)C)c4c3)c(-c3ccccc3)[nH]2)s1 | ≤ 5 µM |
| CC(C)S(=O)(=O)n1c(N)nc2ccc(-c3c(-c4ccccc4)ncn3[C@@H](CO)c3ccccc3)cc21 | ≤ 5 µM |
| CC(C)S(=O)(=O)n1c(N)nc2ccc(-c3c(-c4ccccc4)ncn3CCCN3CCOCC3)cc21 | ≤ 5 µM |
| CC(C)S(=O)(=O)n1c(N)nc2ccc(-c3nc(-c4ccccc4Cl)[nH]c3-c3ccccc3)cc21 | ≤ 5 µM |
| COc1ccc(C2N=C3C(C)=CC=CN3C2c2ccc3nc(N)n(S(=O)(=O)C(C)C)c3c2)cc1 (centres undefined) | ≤ 5 µM |
| CC(C)S(=O)(=O)n1c(N)nc2ccc(-c3c(-c4ccc(F)cc4)ncn3C3CCN(C)CC3)cc21 | ≤ 5 µM |
| CC(C)S(=O)(=O)n1c(N)nc2ccc(-c3nc(-c4ccncc4)[nH]c3-c3ccccc3)cc21 | ≤ 5 µM |
| CC(C)S(=O)(=O)n1c(N)nc2ccc(C3C(c4ccccc4)N=C4C=CC(Cl)=CN43)cc21 (centres undefined) | ≤ 5 µM |
| CC(C)S(=O)(=O)n1c(N)nc2ccc(-c3nc(-c4c(F)cccc4Cl)[nH]c3-c3ccc(F)cc3)cc21 | ≤ 5 µM |
| CCn1cnc(-c2ccc(F)cc2)c1-c1ccc2nc(N)n(S(=O)(=O)C(C)C)c2c1 | ≤ 5 µM |
| CC(C)S(=O)(=O)n1c(N)nc2ccc(-c3nc(-c4ccc([N+](=O)[O-])cc4)[nH]c3-c3ccccc3)cc21 | ≤ 5 µM |
| CC(C)S(=O)(=O)n1c(N)nc2ccc(-c3c(-c4ccccc4)ncn3C3CCC4(CC3)OCCO4)cc21 | ≤ 5 µM |
| CC(C)S(=O)(=O)n1c(N)nc2ccc(-c3nc(-c4cccc(OCCC5=CC=CNC=C5)c4)[nH]c3-c3ccccc3)cc21 | ≤ 5 µM |
| CC(C)S(=O)(=O)n1c(N)nc2ccc(-c3c(-c4ccccc4)ncn3[C@@H](C)CO)cc21 | ≤ 5 µM |
| Nc1nc2ccc(-c3nc[nH]c3-c3ccccc3)cc2[nH]1 | ≤ 5 µM |

| SMILES | IC50 |
| --- | --- |
| CCc1ccc(-c2nc(-c3ccc4nc(N)n(S(=O)(=O)C(C)C)c4c3)c(-c3ccc(F)cc3)[nH]2)s1 | ≤ 5 µM |
| CC(C)S(=O)(=O)n1c(N)nc2ccc(-c3nc(C4CCN(C(=O)OC(C)(C)C)CC4)[nH]c3-c3ccc(F)cc3)cc21 | ≤ 5 µM |
| CC(C)S(=O)(=O)n1c(N)nc2ccc(-c3c(-c4ccccc4)ncn3CCN3CCOCC3)cc21 | ≤ 5 µM |
| CC(C)S(=O)(=O)n1c(N)nc2ccc(-c3c(-c4ccccc4)ncn3-c3ccc(N)cc3)cc21 | ≤ 5 µM |
| CC(C)S(=O)(=O)n1c(N)nc2ccc(-c3c(-c4ccccc4)ncn3[C@@H]3CCCC[C@H]3O)cc21 | ≤ 5 µM |
| CC(C)S(=O)(=O)n1c(N)nc2ccc(-c3nc(C4CCNCC4)[nH]c3-c3ccc(F)cc3)cc21 | ≤ 5 µM |
| CC(C)S(=O)(=O)n1c(N)nc2ccc(-c3c(-c4ccc(F)cc4)ncn3C3CC3)cc21 | ≤ 5 µM |
| CC(C)S(=O)(=O)n1c(N)nc2ccc(-c3nc(-c4ccc(Cl)cc4F)[nH]c3-c3ccccc3)cc21 | ≤ 5 µM |
| CC(C)S(=O)(=O)n1c(N)nc2ccc(-c3[nH]n(-c4ccc(C(F)(F)F)cc4)c(=O)c3-c3ccccc3)cc21 | ≤ 5 µM |
| Cc1ccccc1-c1nc(-c2ccc3nc(N)n(S(=O)(=O)C(C)C)c3c2)c(-c2ccccc2)[nH]1 | ≤ 5 µM |
| CC(C)S(=O)(=O)n1c(N)nc2ccc(-c3c(-c4ccc(F)cc4)ncn3C3CCCC3)cc21 | ≤ 5 µM |
| CC(C)S(=O)(=O)n1c(N)nc2ccc(-c3c(-c4ccccc4)ncn3C3CC(C)(C)NC(C)(C)C3)cc21 | ≤ 5 µM |
| CC(C)S(=O)(=O)n1c(N)nc2ccc(-c3c(-c4ccc(F)cc4)ncn3C3CCNCC3)cc21 | ≤ 5 µM |
| CC(C)S(=O)(=O)n1c(N)nc2ccc(-c3nc(-c4ccc([N+](=O)[O-])s4)[nH]c3-c3ccccc3)cc21 | ≤ 5 µM |
| CC(C)S(=O)(=O)n1c(N)nc2ccc(-c3nc(-c4cccc(OCCN(C)C)c4)[nH]c3-c3ccccc3)cc21 | ≤ 5 µM |
| CC(C)S(=O)(=O)n1c(N)nc2ccc(-c3[nH]n(-c4ccc([N+](=O)[O-])cc4)c(=O)c3-c3ccc(F)cc3)cc21 | ≤ 5 µM |
| CC(C)n1cnc(-c2ccc(F)cc2)c1-c1ccc2nc(N)n(S(=O)(=O)C(C)C)c2c1 | ≤ 5 µM |
| CC(C)S(=O)(=O)n1c(N)nc2ccc(-c3nc(-c4ccc(OCCN(C)C)cc4)[nH]c3-c3ccccc3)cc21 | ≤ 5 µM |
| CC(C)S(=O)(=O)n1c(N)nc2ccc(-c3nc(C(F)(F)F)[nH]c3-c3ccccc3)cc21 | ≤ 5 µM |
| CC(C)S(=O)(=O)n1c(N)nc2ccc(-c3nc(-c4ccc5c(c4)OCO5)[nH]c3-c3ccccc3)cc21 | ≤ 5 µM |
| CC(C)S(=O)(=O)n1c(N)nc2ccc(-c3nc(-c4c(Cl)cccc4Cl)[nH]c3-c3ccccc3)cc21 | ≤ 5 µM |
